The results in this text go back to patent publication US4885245A, “Process for producing L-tryptophan” (Ajinomoto Co., Inc., priority 1984, dated 1989).

The structures appear in SMILES notation.

For assay [1], the target named is T1, tryptophan synthetase (TS) of transformant AJ 12139 (Corynebacterium glutamicum, UniProt P06561).
T1 construct: plasmid pAJ 319 (pAJ 1844 vector) carrying trpA and trpB of AJ 12030, in TSA-deficient host No. 21
In words: TS (TSB) activity of crude enzyme solution of transformant AJ 12139 with added L-tryptophan. It is filed as biochemical, Brevibacterium lactofermentum. Here is the method:
(§1) A specimen strain was cultured in 20 ml of medium for L-tryptophan production (described hereinafter). From the cultured cells, a lysate was prepared by an ultrasonic wave treatment and centrifuged at 32,000×gfor 30 minutes to obtain the supernatant. The supernatant was used as a crude enzyme solution. Using an enzyme reaction solution (1 ml in total amount) consisting of 100 mM tris hydrochloride buffer (pH 7.8), 0.4 mM indole, 30 mM L-serine, 40 μm pyridoxal-5'-phosphate and 180 mM sodium chloride, TSB activity was measured. The reaction was carried out at 30° C. for 30 minutes, 0.1 ml of 1N NaOH was added, the remaining indole was extracted with toluene, color was then formed by an indole reagent and then the color was measured by a spectrophotometer (at […]).

The target in assay [2] is T2, tryptophan synthetase (TS) of wild strain AJ 12036 (Corynebacterium glutamicum, UniProt P06561).
T2 construct: that of the wild strain (AJ 12036); endogenous in cells; host or cells: wild strain AJ 12036 (FERM-P7559, FERM-BP 734), crude sonicate supernatant
T2 sequence (P06561 1-417): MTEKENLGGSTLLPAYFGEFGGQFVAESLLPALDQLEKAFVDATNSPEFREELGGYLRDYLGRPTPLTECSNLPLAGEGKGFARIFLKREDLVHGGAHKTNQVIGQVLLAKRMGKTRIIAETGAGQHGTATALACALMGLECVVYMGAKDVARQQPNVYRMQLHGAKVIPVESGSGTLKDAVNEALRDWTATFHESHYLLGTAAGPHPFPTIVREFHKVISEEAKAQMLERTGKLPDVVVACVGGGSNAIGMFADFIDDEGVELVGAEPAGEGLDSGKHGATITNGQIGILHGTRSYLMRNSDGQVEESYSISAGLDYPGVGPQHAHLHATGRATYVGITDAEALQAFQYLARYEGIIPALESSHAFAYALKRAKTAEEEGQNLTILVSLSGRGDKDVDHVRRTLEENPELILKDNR
T2 sequence (P06562 1-280 partner): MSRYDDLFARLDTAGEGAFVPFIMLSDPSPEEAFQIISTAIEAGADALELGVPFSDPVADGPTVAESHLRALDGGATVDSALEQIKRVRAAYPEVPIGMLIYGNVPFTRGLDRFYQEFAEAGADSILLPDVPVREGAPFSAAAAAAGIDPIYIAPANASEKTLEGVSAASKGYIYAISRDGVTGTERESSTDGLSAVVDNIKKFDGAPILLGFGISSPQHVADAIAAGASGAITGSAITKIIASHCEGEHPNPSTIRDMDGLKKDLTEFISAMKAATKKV
In words: TS (TSB) activity of crude enzyme solution of wild strain AJ 12036 with added L-tryptophan. It is filed as biochemical. The following applies: strain AJ 12036 crude enzyme, 20 mM L-Tryptophan added. Here is the method: as §1

As to `N[C@@H](Cc1c[nH]c2ccccc12)C(=O)O` [L-Tryptophan, L-tryptophan], the “inhibition of TS activity of the transformant (in words)” value in assay [1] (in the presence of 20 mM L-tryptophan) is given as “inhibited only slightly”. Further, the “TS activity (amount of decreased indole in mole/min/mg amount of protein)” value in assay [1] (strain AJ 12139 crude enzyme, 20 mM L-Tryptophan added, 30° C., 30 minutes, 0 mM control 81.0) is 66.4 mole/min/mg amount of protein; in assay [2] (30° C., 30 minutes, 0 mM control 7.1), 4.6 mole/min/mg amount of protein. In assay [1] (strain AJ 12139 crude enzyme, 20 mM L-Tryptophan added, 30 min), the “TS activity, relative value in parentheses (0 mM = 100)” value was determined as 82. For the same compound, the activity at 20000 µM in assay [2] (0.5 h, read-out: TS activity, relative value in parentheses (0 mM = 100)) came to 65%.
